Results reported in patent US7585859B2, “PDE4B inhibitors and uses therefor” (Plexxikon, Inc., priority 2004, dated 2009).
pIC50: −log10 of the molar value.

Key:
[1] = biological target: T1, PDE4B: The catalytic domain of human PDE4B from S152-S528 (Homo sapiens, UniProt Q07343); assay: PDE4 IC50 determination by Scintillation Proximity Assay, PDE4B; format: biochemical; conditions: Table 1B, Formula I compounds; read-out: IC50 PDE4B
T1 construct: His6 (N); thrombin cleavage site (N); made in house; host or cells: E. coli
T1 sequence (Q07343 with tags, fused parts or gaps): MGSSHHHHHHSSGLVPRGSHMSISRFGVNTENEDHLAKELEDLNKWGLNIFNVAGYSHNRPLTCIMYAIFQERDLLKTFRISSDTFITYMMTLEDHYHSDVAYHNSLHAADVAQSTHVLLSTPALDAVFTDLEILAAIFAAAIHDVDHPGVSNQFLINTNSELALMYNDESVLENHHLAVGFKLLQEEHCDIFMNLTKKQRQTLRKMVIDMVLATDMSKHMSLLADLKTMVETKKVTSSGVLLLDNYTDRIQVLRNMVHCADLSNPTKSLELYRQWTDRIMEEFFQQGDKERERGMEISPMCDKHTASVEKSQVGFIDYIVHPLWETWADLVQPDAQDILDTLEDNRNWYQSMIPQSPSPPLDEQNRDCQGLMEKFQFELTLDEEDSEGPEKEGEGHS
Procedure, shortened: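 Enzyme was added to compound and [^3H]cAMP, then incubated 30 min at 30° (PDE4B 80 ng/ml; PDE4D 4 ng/ml). Product [^3H]AMP bound to SPA beads and was counted. IC50 was fitted by non-linear regression against DMSO and roflumilast controls.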

PDE4D = biological target: T2, PDE4D (Homo sapiens, UniProt Q08499); assay: PDE4 IC50 determination by Scintillation Proximity Assay, PDE4D; format: biochemical; conditions: Table 1B, Formula I compounds; read-out: IC50 PDE4D
T2 construct: PDE4D: The catalytic domain of human PDE4B from S3 16-V692; His6 (N); thrombin cleavage site (N); made in house; host or cells: E. coli
T2 sequence (Q08499 380-756): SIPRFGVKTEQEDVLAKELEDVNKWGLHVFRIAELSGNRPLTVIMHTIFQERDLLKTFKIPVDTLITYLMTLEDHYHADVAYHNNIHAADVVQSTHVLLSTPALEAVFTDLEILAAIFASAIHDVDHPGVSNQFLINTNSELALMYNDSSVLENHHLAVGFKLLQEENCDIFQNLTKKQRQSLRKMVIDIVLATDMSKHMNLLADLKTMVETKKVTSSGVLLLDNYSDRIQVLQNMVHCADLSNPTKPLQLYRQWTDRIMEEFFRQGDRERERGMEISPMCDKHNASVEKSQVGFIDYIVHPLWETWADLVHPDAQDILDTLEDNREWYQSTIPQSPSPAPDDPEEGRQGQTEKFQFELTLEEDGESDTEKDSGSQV
Procedure: IC50s were determined by Scintillation Proximity Assay (SPA). The principle of the assay is based on the fact that cAMP, the PDE4 substrate, binds weakly to Yittrium Silicate SPA beads, whereas AMP, the product of PDE4 hydrolysis binds strongly. Thus, the extent of PDE4 hydrolysis of a sample of [^3H]cAMP can be measured because only the
[^3H]AMP produced by PDE4 hydrolysis will bind to the SPA beads and produce a scintillation signal.
PDE4 enzymes used for IC50 assays were:
Enzyme was stored in 50% glycerol at −20°.
In addition to the compound dilutions, each assay plate contained control wells with 1 μl of DMSO (to define 0% enzyme inhibition) or 1 μl of 200 μM roflumilast (to define 100% enzyme inhibition). […] Next, 10 μl of PDE4 enzyme in assay buffer was added and the plates were shaken for 30 s. at 1000 rpm to start the cAMP hydrolysis reaction. The concentrations of enzyme used were: PDE4B, 80 ng/ml; PDE4D, 4 ng/ml; PDE4B2, 2.5 μl of 50% glycerol stock/ml; PDE4D5 0.083 μl of 50% glycerol stock/ml. Assay plates were covered and incubated for 30 min. at 30°. […] The assay plates were covered with clear plastic film, centrifuged for 1 min. at 1000 RPM to settle the SPA beads, and counted using a Wallac TriLux scintillation counter. IC50's were calculated from the raw assay data by non-linear regression curve fitting using the Assay Explorer software package from MDL.

SMILES	pIC50 [1]	pIC50 (PDE4D)
COc1ccc(OC)c(C(=O)c2sc(Nc3ccc4c(c3)CCC4)c(C#N)c2N)c1 [Compound 1-94, 4-Amino-5-(2,5-dimethoxy-benzoyl)-2-(indan-5-ylamino)-thiophene-3-carbonitrile]	> 5.00	> 5.00
COC(=O)C(CCSC)Nc1sc(C(=O)c2cc(OC)ccc2OC)c(N)c1C#N (centres unmarked) [Compound 1-95, 2-[4-Amino-3-cyano-5-(2,5-dimethoxy-benzoyl)-thiophen-2-ylamino]-4-methylsulfanyl-butyric acid methyl ester]	> 5.00	< 5.00
COc1ccc(OC)c(C(=O)c2sc(Nc3ccc(Oc4ccccc4)cc3)c(C#N)c2N)c1 [Compound 1-96, 4-Amino-5-(2,5-dimethoxy-benzoyl)-2-(4-phenoxy-phenylamino)-thiophene-3-carbonitrile]	> 5.00	< 5.00
COc1ccc(OC)c(C(=O)c2sc(Nc3ccc(C(=O)NC4CCOC4=O)cc3)c(C#N)c2N)c1 (centres unmarked) [Compound 1-97, 4-[4-Amino-3-cyano-5-(2,5-dimethoxy-benzoyl)-thiophen-2-ylamino]-N-(2-oxo-tetrahydro-furan-3-yl)-benzamide]	< 5.00	> 5.00
COc1ccc(OC)c(C(=O)c2sc(NC3CCOC3=O)c(C#N)c2N)c1 (centres unmarked) [Compound 1-98, 4-Amino-5-(2,5-dimethoxy-benzoyl)-2-(2-oxo-tetrahydro-furan-3-ylamino)-thiophene-3-carbonitrile]	> 5.00	< 5.00
COc1ccc(C(=O)c2sc(Nc3ccccc3F)c(C#N)c2N)c(OC)c1 [Compound 1-100, 4-Amino-5-(2,4-dimethoxy-benzoyl)-2-(2-fluoro-phenylamino)-thiophene-3-carbonitrile]	> 5.00	> 5.00
COc1ccc(Nc2sc(C(=O)c3ccc(OC)cc3OC)c(N)c2C#N)cc1 [Compound 1-101, 4-Amino-5-(2,4-dimethoxy-benzoyl)-2-(4-methoxy-phenylamino)-thiophene-3-carbonitrile]	> 5.00	> 5.00
COc1ccc(C(=O)c2sc(Nc3ccc4c(c3)CCC4)c(C#N)c2N)c(OC)c1 [Compound 1-102, 4-Amino-5-(2,4-dimethoxy-benzoyl)-2-(indan-5-ylamino)-thiophene-3-carbonitrile]	> 5.00	> 5.00
COc1ccc(C(=O)c2sc(Nc3ccc(C(=O)NC4CCOC4=O)cc3)c(C#N)c2N)c(OC)c1 (centres unmarked) [Compound 1-103, 4-[4-Amino-3-cyano-5-(2,4-dimethoxy-benzoyl)-thiophen-2-ylamino]-N-(2-oxo-tetrahydro-furan-3-yl)-benzamide]	< 5.00	< 5.00
CCc1ccccc1Nc1sc(C(=O)c2ccc(OC)cc2OC)c(N)c1C#N [Compound 1-104, 4-Amino-5-(2,4-dimethoxy-benzoyl)-2-(2-ethyl-phenylamino)-thiophene-3-carbonitrile]	> 5.00	> 5.00
COc1ccc(Nc2sc(C(=O)c3coc4ccccc34)c(N)c2C#N)cc1 [Compound 1-105, 4-Amino-5-(benzofuran-3-carbonyl)-2-(4-methoxy-phenylamino)-thiophene-3-carbonitrile]	> 5.00	> 5.00
COC(=O)C(CC(C)C)Nc1sc(C(=O)c2coc3ccccc23)c(N)c1C#N (centres unmarked) [Compound 1-106, 2-[4-Amino-5-(benzofuran-3-carbonyl)-3-cyano-thiophen-2-ylamino]-4-methyl-pentanoic acid methyl ester]	> 5.00	< 5.00
COC(=O)C(CCSC)Nc1sc(C(=O)c2coc3ccccc23)c(N)c1C#N (centres unmarked) [Compound 1-107, 2-[4-Amino-5-(benzofuran-3-carbonyl)-3-cyano-thiophen-2-ylamino]-4-methylsulfanyl-butyric acid methyl ester]	> 5.00	> 5.00
N#Cc1c(Nc2ccc(C(=O)NC3CCOC3=O)cc2)sc(C(=O)c2coc3ccccc23)c1N (centres unmarked) [Compound 1-108, 4-[4-Amino-5-(benzofuran-3-carbonyl)-3-cyano-thiophen-2-ylamino]-N-(2-oxo-tetrahydro-furan-3-yl)-benzamide]	> 5.00	> 5.00
CCc1ccccc1Nc1sc(C(=O)c2coc3ccccc23)c(N)c1C#N [Compound 1-109, 4-Amino-5-(benzofuran-3-carbonyl)-2-(2-ethyl-phenylamino)-thiophene-3-carbonitrile]	> 5.00	> 5.00
COC(=O)C(CC(C)C)Nc1sc(C(=O)c2ccccc2Cl)c(N)c1C#N (centres unmarked) [Compound 1-111, 2-[4-Amino-5-(2-chloro-benzoyl)-3-cyano-thiophene-2-ylamino]-4-methyl-pentanoic acid methyl ester]	> 5.00	> 5.00
COC(=O)C(CCSC)Nc1sc(C(=O)c2ccccc2Cl)c(N)c1C#N (centres unmarked) [Compound 1-112, 2-[4-Amino-5-(2-chloro-benzoyl)-3-cyano-thiophene-2-ylamino]-4-methylsulfanyl-butyric acid methyl ester]	> 5.00	> 5.00
COc1ccc(CNc2sc(C(=O)c3ccccc3Cl)c(N)c2C#N)cc1OC [Compound 1-113, 4-Amino-5-(2-chloro-benzoyl)-2-(3,4-dimethoxy-benzylamino)-thiophene-3-carbonitrile]	> 5.00	> 5.00
N#Cc1c(Nc2ccc(C(=O)NC3CCOC3=O)cc2)sc(C(=O)c2ccccc2Cl)c1N (centres unmarked) [Compound 1-114, 4-[4-Amino-5-(2-chloro-benzoyl)-3-cyano-thiophen-2-ylamino]-N-(2-oxo-tetrahydro-furan-3-yl)-benzamide]	> 5.00	> 5.00
N#Cc1c(NC2CCCC2)sc(C(=O)c2ccccc2Cl)c1N [Compound 1-115, 4-Amino-5-(2-chloro-benzoyl)-2-cyclopentylamino-thiophene-3-carbonitrile]	> 5.00	> 5.00
N#Cc1c(NC2CCOC2=O)sc(C(=O)c2ccccc2Cl)c1N (centres unmarked) [Compound 1-116, 4-Amino-5-(2-chloro-benzoyl)-2-(2-oxo-tetrahydro-furan-3-ylamino)-thiophene-3-carbonitrile]	< 5.00	< 5.00
COc1ccc(Nc2sc(C(=O)c3cccc(Cl)c3)c(N)c2C#N)cc1 [Compound 1-117, 4-Amino-5-(3-chloro-benzoyl)-2-(4-methoxy-phenylamino)-thiophene-3-carbonitrile]	> 5.00	> 5.00
COC(=O)C(CC(C)C)Nc1sc(C(=O)c2cccc(Cl)c2)c(N)c1C#N (centres unmarked) [Compound 1-118, 2-[4-Amino-5-(3-chloro-benzoyl)-3-cyano-thiophen-2-ylamino]-4-methyl-pentanoic acid methyl ester]	> 5.00	< 5.00
N#Cc1c(Nc2ccc(C(=O)NC3CCOC3=O)cc2)sc(C(=O)c2cccc(Cl)c2)c1N (centres unmarked) [Compound 1-119, 4-[4-Amino-5-(3-chloro-benzoyl)-3-cyano-thiophen-2-ylamino]-N-(2-oxo-tetrahydro-furan-3-yl)-benzamide]	> 5.00	> 5.00
N#Cc1c(NC2CCCC2)sc(C(=O)c2cccc(Cl)c2)c1N [Compound 1-120, 4-Amino-5-(3-chloro-benzoyl) 2-cyclopentylamino-thiophene-3-carbonitrile]	> 5.00	> 5.00
